Reference: patent US20040006328A1, “Targeting of sebaceous follicles as a treatment of sebaceous gland disorders” (priority 1999, published 2004)

What was measured:
[1] = Methylene blue staining of sebaceous glands in ex vivo tissue (topical application, frozen sections, light microscopy); type: in vitro ADME, human
Method: (§1) Freshly excised human skin from a face-lift procedure was provided by a plastic surgeon. The skin originated from the periauricular area and the anterior hairline of a middle-aged fair-skinned person. The samples were stored at 4 ? C. overnight. On the day of experiment, the tissue was shaved with a razor and defatted by rubbing the surface with alcohol swabs for 1 minute. After cutting the skin in smaller pieces, the tissue was placed on saline-soaked gauzes. Methylene blue, a cationic hydrophilic dye was dissolved in distilled water, alcohol, and propylene glycol at a concentration of 5% and applied on the surface of the skin in a thick layer at 31 ? C. […] 5 mm-punch biopsies were performed and the samples were processed frozen sections.
There was minimal non-specific staining of the interstitial dermis.
as §1, with “5% and was mixed in a commercially available aqueous-based lotion (50 mL of dissolved dye in 500 mg of lotion) and applied on” for “5% and applied on”
Methylene blue dye was also administered into the sebaceous glands via Retina Gel® (Ortho Pharmaceuticals) as the carrier vehicle. Typically, a sufficient amount of methylene blue (50 mL of dissolved dye in 500 mg of gel) was combined with hydroxypropyl cellulose, butylated hydroxytoluene and alcohol and applied to the epidermis.

[2] = Localization of applied dyes in in-vitro human sebaceous skin samples by frozen sectioning and light microscopy; type: in vitro ADME
Source text: Fresh, in-vitro human sebaceous skin samples were used. Dye solutions and particle suspensions were applied to the samples at different concentration and in various vehicles, followed by localization of the dye by frozen sectioning and light microscopy. […] Apparently, almost any dye or suspension can be delivered to the upper infundibulum by direct solvent flow into the pore. Optimization of the concentration and solvent for MB and ICG can be determined by one skilled in the art. […] Physical means of increasing dye uptake into the infundibulum, including ultrasonication with a tissue dismembranator at low intensity, and a simple pressure-applicator intended to open the surface pores while providing a pressure gradient in favor of dye uptake is possible.

## CN(C)c1ccc2nc3ccc(=[N+](C)C)cc-3sc2c1 [Methylene blue]
[1]
  non-specific staining of the interstitial dermis (FIG. 9): minimal
  non-specific staining of the interstitial dermis (FIG. 10): minimal
[1]; 5% dye solution mixed in aqueous-based lotion (50 mL of dissolved dye in 500 mg of lotion), 31 C, 1 hour
  surface staining after removal of excess dye: lightly stained epidermis with accentuation of the staining in the follicular pores
[1]; 5% dye solution mixed in aqueous-based lotion, 31 C, 1 hour, frozen sections
  staining in histologic sections (light microscopy, FIG. 10): dense blue staining of the epidermis and of some sebaceous glands and entire hair follicles
[1]; 5% in distilled water, alcohol and propylene glycol, 31 C, 1 hour, 5 mm punch biopsies, frozen sections
  staining in histologic sections (light microscopy, FIG. 9): dense blue staining of the epidermis and of some sebaceous glands and entire hair follicles
[1]; 5% in distilled water, alcohol and propylene glycol, thick layer at 31 C, 1 hour
  surface staining after removal of excess dye: lightly stained epidermis with accentuation of the staining in the follicular pores
[1]; Retina Gel as carrier vehicle (50 mL of dissolved dye in 500 mg of gel)
  penetration into the sebaceous glands (light microscopy): Penetration of the methylene blue dye into the sebaceous glands
[2]
  increase of rate of uptake by iontophoresis: at least one order of magnitude
[2]; fresh in-vitro human sebaceous skin, dye solutions at different concentrations and in various vehicles
  entry of dye into the infundibulum: rapidly enter the infundibulum
[2]; fresh in-vitro human sebaceous skin, requiring several hours
  staining of the sebaceous glands: deeply and selectively stain the sebaceous glands
